In publication PMC10974084, “Combination of Betulinic Acid Fragments and Carbonic Anhydrase Inhibitors—A New Drug Targeting Approach” (Pharmaceutics, 2024):
Where two headings read alike, the source gives them in different places.

Tests used:
[1] = test system: A375 melanoma cells; test: SRB cytotoxicity assay, A375; format: cell-based; conditions: Homo sapiens, read-out: IC50 A375
Procedure: (§1) All of the compounds were dissolved in dimethyl sulfoxide (DMSO) to achieve a 20 mM stock solution. Cells were seeded in cell culture flasks 24 h before treatment. The treatment was performed for 24 h.
(§2) The cytotoxicity of the drugs was determined in 2D tumor models using sulforhodamine B (SRB) assays. Treatment started 24 h after seeding the tumor cells in 96-well plates as previously described.

[2] = test system: MCF-7 breast cancer cells; test: SRB cytotoxicity assay, MCF-7; format: cell-based; conditions: Homo sapiens, read-out: IC50 MCF-7
Procedure: as §1, §2

[3] = test system: A2780 ovarian cancer cells; test: SRB cytotoxicity assay, A2780; format: cell-based; conditions: Homo sapiens, read-out: IC50 A2780
Procedure: as §1, §2

[4] = test system: MDA-MB-231 spheroids; test: Spheroid cytotoxicity assay (luciferase), MDA-MB-231; format: cell-based, human; conditions: Homo sapiens, MDA-MB-231, 168 h, read-out: IC50 MDA-MB-231 spheroids
Procedure: (§3) To determine cytotoxicity in the 3D tumor models, spheroid cytotoxicity assays were performed as previously described. […] For generation of single tumor spheroids, tumor cells resuspended in culture medium were seeded into 96-well plates, which were coated before with 0.7% agarose (SeaKem® GTG™ Agarose, Lonza, Basel, Switzerland). After the formation of spheroids (48 h), they were treated with serial dilutions of compounds. Measurements of luciferase activity were performed on day 7, after supplementation with D-luciferin (Perkin Elmer, Rodgau, Germany), on a Tecan Spark microplate reader (Tecan, Männedorf, Switzerland). Generation of dose-response curves and calculation of IC50 values including standard deviations were accomplished using GraphPad Prism8.
(§4) Since the tumor cells stably express luciferase, analysis of spheroid growth and response to therapy is accomplished by measurement of bioluminescent signal intensity.

[5] = test system: Hs578T spheroids; test: Spheroid cytotoxicity assay (luciferase), Hs578T; format: cell-based, human; conditions: for IC50: Homo sapiens, Hs-578T, 168 h, read-out: IC50 Hs578T spheroids; for resistance of Hs578T spheroids versus MDA-MB-231 spheroids: difference of spheroid IC50 values
Procedure: as §3, §4

[6] = test system: MCF-7 cells; test: Annexin V / propidium iodide assay, MCF-7; format: cell-based, human; conditions: double the IC50 concentration
Procedure: The Annexin V assays were performed as previously described.
Compounds 3, 5, and 9 were used to study cell death mechanisms and cell cycle analysis. A feature that can be used as it is only characteristic of apoptotic but not necrotic cells is Annexin V staining. During apoptosis, in addition to cell shrinkage, chromatin condensation, and the formation of apoptotic bodies, phosphatidylserine, which is originally inside the membrane, is translocated to the outside. There is a rapid change in phospholipid symmetry in the cell membrane, a process occurring so rapidly that the barrier function of the cell membrane is initially still present. The cellular protein Annexin V can bind to the displaced phosphatidylserine in the presence of calcium. To test for the presence of the cell membrane barrier, the non-membrane-permeable dye propidium iodide was added, which intercalates into the DNA. The flow cytometric data were divided into four areas (live cells, early and late apoptotic cells, and necrotic cells). Untreated cells were used as controls. The results are depicted in Figure 3. […] Even after 48 h, no significant difference between compound 3 and 5 was detected (55–60% live cells, 8% early apoptotic cells, 28–36% late apoptotic cells, 0.5–3% necrotic cells). […] Since both compounds are sulfonamides of betulin, the similar results are not surprising.

[7] = test system: MCF-7 cells; test: Cell cycle analysis, MCF-7; format: cell-based, human; conditions: double the IC50 concentration
Procedure: (§5) Cell cycle analyses were performed as previously described.
(§6) Changes in the genetic material and the resulting mutations, which can affect the formation of tumors, usually occur during the proliferation process in the cell. A human cell passes through all four phases of this cell cycle within 20 h, with the set of its chromosomes varying between single and double. During apoptosis, fragmentation of DNA occurs along with an associated decrease in chromosome content. Fixation of cells with ethanol leads to permeabilization of the cell membrane and thus to loss of smaller DNA fragments, so that apoptotic cells contain less than the single set of chromosomes detected by a SubG1 peak. Given the different amounts of DNA in the cells and the proportional binding of propidium iodide to the DNA, the different fluorescence intensities can be used to infer the distribution of cells in the respective phases of the cell cycle.
The MCF-7 breast cancer cell line was used in the experiments. An untreated sample was also included in the cell cycle analysis as a control. The results are depicted in Figure 4.

[8] = test system: tumor cell lines (2D and 3D tumor models); test: Cytotoxicity summarised across tumor models; format: cell-based
Procedure: as §2
To determine cytotoxicity in the 3D tumor models, spheroid cytotoxicity assays were performed as previously described. The luciferase-expressing, breast cancer cell lines MDA-MB-231 and Hs578T and derived spheroids were cultivated in RPMI medium (Sigma-Aldrich, Taufkirchen, Germany) containing 10% fetal bovine serum (BioWest, Nuaillé, France) and […] penicillin/streptomycin (Sigma-Aldrich) at 37 °C/5% CO2 in a humid atmosphere. For generation of single tumor spheroids, tumor cells resuspended in culture medium were seeded into 96-well plates, which were coated before with 0.7% agarose (SeaKem® GTG™ Agarose, Lonza, Basel, Switzerland). After the formation of spheroids (48 h), they were treated with serial dilutions of compounds. Measurements of luciferase activity were performed on day 7, after supplementation with D-luciferin (Perkin Elmer, Rodgau, Germany), on a Tecan Spark microplate reader (Tecan, Männedorf, Switzerland). Generation of dose-response curves and calculation of IC50 values including standard deviations were accomplished using GraphPad Prism8.

[9] = biological target: recombinant human carbonic anhydrase IX (Homo sapiens, UniProt Q16790); test: hCA IX esterase assay with p-nitrophenyl acetate; conditions: for Ki relative to the unconjugated inhibitors: higher Ki than unconjugated inhibitors
Procedure: In this measurement, the enzymatically catalyzed hydrolysis of p-nitrophenyl acetate to p-nitrophenol was investigated. […] This was followed by measurement of the v-S-characteristics with inhibitor. […] For each run, 2 experimental series (biological replicate) were prepared simultaneously and measured for 10 min at a measurement interval of 8 s, also as a two-fold determination (technical replicate). […] The resulting reaction velocities, calculated from a calibration curve with p-nitrophenole under the same conditions, were plotted against the substrate concentration. The kinetic evaluation for competitive inhibition was then performed with the program GraphPad Prism.

[10] = test system: A375 cells; test: Cell cycle analysis, A375; format: cell-based, human; conditions: double the IC50 concentration
Procedure: as §5, §6
In addition, after 48 h of treatment, there was a decrease in the S and M phases for all treatments, which is similar to that noted after 24 h. […] As in the 24 and 48 h tests, there was a decrease in M- and S-phase cells and an increase in G1/G0 phase cells after 72 h compared with the untreated control. Several independent experiments by different groups show similar results with MCF-7 [42, 43, 44]. Due to a lack of DNA fragmentation in MCF-7 cells, the human melanoma cell line A375 was used as a second cell line for comparison (Figure 4d). […] The effect of compound 3 is even more pronounced with an incubation time of 48 or 72 h. An increase in the SubG1 peak was observed from 0.7% in the control to up to 60% after 72 h of treatment.

[11] = A-375, SRB assay, 96 h incubation, mean ± SD
[12] = MCF7, SRB assay, 96 h incubation, mean ± SD
[13] = A2780, SRB assay, 96 h incubation, mean ± SD
[14] = 7 days of treatment, 3 independent experiments
[15] = Homo sapiens; SRB assays, A375, MCF-7, A2780; read-out: IC50 values (range over cell lines of Table 1)
[16] = Homo sapiens; read-out: cytotoxicity range in 2D and 3D tumor models

Row | Structure (SMILES) | IC50 [1, 11] [µM] | IC50 [2, 12] [µM] | IC50 [3, 13] [µM] | resistance of Hs578T spheroids versus MDA-MB-231 spheroids [5] | late apoptotic cells ([6]; MCF-7, 24 h) [%] | early apoptotic cells ([6]; MCF-7, 48 h) [%] | effect on cell viability (Annexin V) ([6]; MCF-7, 72 h) | cells in SubG1 phase ([7]; MCF-7, 72 h) [%] | IC50 [8, 15] [µM] | IC50 [8, 16] [µM] | Ki [9] [µM] | Ki relative to the unconjugated inhibitors [9] | also measured
1 | C=C(C)C1CCC2(C(=O)NCCOCCO)CCC3(C)C(CCC4C5(C)CCC(OC(C)=O)C(C)(C)C5CCC43C)C12 (centres unmarked) [Compound 10] | 4.3 ± 0.2 | 5.9 ± 0.2 | 9.5 ± 0.9 | – | – | – | – | – | – | – | – | – | melting point: 205 °C
2 | C=C(C)C1CCC2(COC(=O)CCC(=O)NCCS(N)(=O)=O)CCC3(C)C(CCC4C5(C)CCC(OC(C)=O)C(C)(C)C5CCC43C)C12 (stereo not drawn) [Compound 5, (3β)-3-(Acetyloxy)-lup-20(29)-en-28-yl 4-{[2-(aminosulfonyl)-ethyl]amino}-4-oxobutanoate] | 9.4 ± 0.5 | 8.6 ± 0.7 | 11.4 ± 1.4 | only about three-fold differences | 16 | 8 | comparably strong effect | 12.1 | 6.4 to 11.4 | 6.4 to 30.1 | 1.1 ± 0.31 | approximately 10 fold | IC50 [4, 14]: 10.3 ± 2.7 µM; IC50 [5, 14]: 30.1 ± 0.7 µM; cells in G1/G0 phase ([7]; MCF-7, 48 h): 83.9%; cells in M phase ([7]; MCF-7, 48 h): 5.8%; cells in S phase ([7]; MCF-7, 48 h): 1.8%; cells in SubG1 phase ([7]; MCF-7, 48 h): 8.1%
3 | C=C(C)C1CCC2(C(=O)NCCS(N)(=O)=O)CCC3(C)C(CCC4C5(C)CCC(OC(C)=O)C(C)(C)C5CCC43C)C12 (stereo not drawn) [Compound 3, (3β)-28-{[2-(Aminosulfonyl)-ethyl]-amino}28-oxolup-20(29)-en-3-yl Acetate] | 6.4 ± 0.7 | 7.5 ± 0.7 | 10.4 ± 0.8 | – | 16 | 8 | – | 8.1 | 6.4 to 11.4 | 6.4 to 30.1 | 1.04 ± 0.39 | approximately 10 fold | early apoptotic cells ([6]; MCF-7, 72 h): 9%; late apoptotic cells ([6]; MCF-7, 72 h): 53%; live cells ([6]; MCF-7, 72 h): 34%; necrotic cells ([6]; MCF-7, 72 h): 4.5%; cells in G1/G0 phase ([10]; A375, 24 h): 46.9%; cells in M phase ([10]; A375, 24 h): 15.8%; cells in S phase ([10]; A375, 24 h): 21.2%; cells in SubG1 phase ([10]; A375, 24 h): 11.9%; SubG1 peak ([10]; A375, 72 h, control 0.7%): up to 60%
4 | Nc1nnc(S(N)(=O)=O)s1 [Compound 6, 5-Amino-1,3.4-thiadiazole-2-sulfonamide] | > 100 | > 100 | > 100 | – | – | – | – | – | – | – | – | – | –
5 | C=C(C)C1CCC2(COC(=O)CCC(=O)Nc3nnc(S(N)(=O)=O)s3)CCC3(C)C(CCC4C5(C)CCC(OC(C)=O)C(C)(C)C5CCC43C)C12 (stereo not drawn) [Compound 9, (3β)-3-(Acetyloxy)-lup-20(29)-en-28-yl-4-{[5-(aminosulfonyl)-1,3,4-thiadiazol-2-yl]-amino}-4-oxobutanoate] | – | – | – | only about three-fold differences | – | – | comparatively smaller decrease in cell viability | 6.5 | – | – | 1.25 ± 0.25 | approximately 10 fold | IC50 ([1]; A-375, 96 h): 7.2 ± 0.6 µM; IC50 ([2]; MCF7, 96 h): 6.2 ± 0.2 µM; IC50 ([3]; A2780, 96 h): 8.7 ± 2 µM; IC50 [4]: 8.1 ± 1.4 µM; IC50 [5]: 28.4 ± 0.3 µM; effect on cell survival compared to untreated control ([6]; MCF-7, 24 h): no difference; IC50 ([8]; Homo sapiens, read-out: cytotoxicity range in 2D and 3D tumor models): 6.4 to 30.1 µM
